These results are taken from ChEMBL document CHEMBL3774375, “Structure-Based Identification of Inhibitory Fragments Targeting the p300/CBP-Associated Factor Bromodomain” (J Med Chem, 2016).

Active and inactive are the calls of the source. The calls are words filed in the database; no cut-off is given here.

Experiment [1] has as its target T1, Histone acetyltransferase KAT2B (Homo sapiens, UniProt Q92831).
Target sequence in this assay (Q92831 whole entry, looked up): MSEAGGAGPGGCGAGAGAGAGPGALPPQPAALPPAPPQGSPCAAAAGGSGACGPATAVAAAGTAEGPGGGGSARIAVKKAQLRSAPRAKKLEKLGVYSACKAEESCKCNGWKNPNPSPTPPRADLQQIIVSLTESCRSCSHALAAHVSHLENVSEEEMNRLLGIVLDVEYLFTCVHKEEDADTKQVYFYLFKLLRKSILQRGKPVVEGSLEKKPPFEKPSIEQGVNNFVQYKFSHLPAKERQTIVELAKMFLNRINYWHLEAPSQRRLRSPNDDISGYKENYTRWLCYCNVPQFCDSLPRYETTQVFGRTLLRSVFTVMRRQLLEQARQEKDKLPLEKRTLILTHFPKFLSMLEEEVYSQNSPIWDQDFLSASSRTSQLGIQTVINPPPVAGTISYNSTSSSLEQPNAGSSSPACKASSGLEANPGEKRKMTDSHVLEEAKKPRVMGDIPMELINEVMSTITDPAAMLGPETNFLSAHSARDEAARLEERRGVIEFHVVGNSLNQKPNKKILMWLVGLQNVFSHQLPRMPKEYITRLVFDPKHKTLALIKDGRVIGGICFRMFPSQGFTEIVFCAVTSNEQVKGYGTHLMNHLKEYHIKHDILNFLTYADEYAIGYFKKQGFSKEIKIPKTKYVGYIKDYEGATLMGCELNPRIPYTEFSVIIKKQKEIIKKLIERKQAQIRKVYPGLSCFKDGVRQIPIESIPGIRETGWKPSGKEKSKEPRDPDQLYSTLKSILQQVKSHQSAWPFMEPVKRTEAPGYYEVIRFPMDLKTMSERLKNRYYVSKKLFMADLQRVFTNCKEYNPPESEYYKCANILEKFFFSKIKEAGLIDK
Description: Binding affinity to recombinant N-terminal His-tagged PCAF (715 to 831 residues) (unknown origin) expressed in Escherichia coli Rosetta cells at 1 mM by differential scanning fluorimetry
Experiment [2] concerns the target T2, Bromodomain-containing protein 9 (Homo sapiens) (UniProt Q9H8M2).
T2 sequence (whole entry): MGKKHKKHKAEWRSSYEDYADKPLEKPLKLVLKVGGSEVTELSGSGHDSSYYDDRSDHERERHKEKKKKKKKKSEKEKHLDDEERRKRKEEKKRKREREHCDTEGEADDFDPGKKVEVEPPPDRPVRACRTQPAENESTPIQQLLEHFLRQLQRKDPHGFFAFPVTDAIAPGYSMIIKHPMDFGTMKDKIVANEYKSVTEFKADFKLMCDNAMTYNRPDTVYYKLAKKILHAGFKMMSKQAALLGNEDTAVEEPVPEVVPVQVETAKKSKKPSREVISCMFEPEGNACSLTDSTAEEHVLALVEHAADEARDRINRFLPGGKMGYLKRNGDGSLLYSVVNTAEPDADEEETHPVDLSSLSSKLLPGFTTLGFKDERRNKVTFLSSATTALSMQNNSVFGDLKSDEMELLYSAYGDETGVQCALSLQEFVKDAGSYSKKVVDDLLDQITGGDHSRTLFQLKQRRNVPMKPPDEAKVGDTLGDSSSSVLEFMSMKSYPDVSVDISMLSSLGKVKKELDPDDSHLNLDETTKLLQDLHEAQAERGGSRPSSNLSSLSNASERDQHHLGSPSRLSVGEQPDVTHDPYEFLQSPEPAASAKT
Description: Inhibition of BRD9 (unknown origin) at 25 uM by alphascreen assay.

The target in experiment [3] is T1, Histone acetyltransferase KAT2B. Description: Binding affinity to N-terminal His-tagged PCAF (715 to 831 residues) (unknown origin) expressed in Escherichia coli Rosetta cells by isothermal titration calorimetry.
Target sequence in this assay (Q92831 whole entry): as the sequence (Q92831 whole entry, looked up) above
Experiment [4] shares this target. Description: Binding affinity to recombinant N-terminal His-tagged PCAF (715 to 831 residues) (unknown origin) expressed in Escherichia coli Rosetta cells at 0.5 mM by differential scanning fluorimetry.
Target sequence in this assay (Q92831 whole entry, looked up): as the sequence (Q92831 whole entry, looked up) above
The target of experiment [5] is T3, Bromodomain-containing protein 7 (Homo sapiens) (UniProt Q9NPI1).
T3 sequence (whole entry): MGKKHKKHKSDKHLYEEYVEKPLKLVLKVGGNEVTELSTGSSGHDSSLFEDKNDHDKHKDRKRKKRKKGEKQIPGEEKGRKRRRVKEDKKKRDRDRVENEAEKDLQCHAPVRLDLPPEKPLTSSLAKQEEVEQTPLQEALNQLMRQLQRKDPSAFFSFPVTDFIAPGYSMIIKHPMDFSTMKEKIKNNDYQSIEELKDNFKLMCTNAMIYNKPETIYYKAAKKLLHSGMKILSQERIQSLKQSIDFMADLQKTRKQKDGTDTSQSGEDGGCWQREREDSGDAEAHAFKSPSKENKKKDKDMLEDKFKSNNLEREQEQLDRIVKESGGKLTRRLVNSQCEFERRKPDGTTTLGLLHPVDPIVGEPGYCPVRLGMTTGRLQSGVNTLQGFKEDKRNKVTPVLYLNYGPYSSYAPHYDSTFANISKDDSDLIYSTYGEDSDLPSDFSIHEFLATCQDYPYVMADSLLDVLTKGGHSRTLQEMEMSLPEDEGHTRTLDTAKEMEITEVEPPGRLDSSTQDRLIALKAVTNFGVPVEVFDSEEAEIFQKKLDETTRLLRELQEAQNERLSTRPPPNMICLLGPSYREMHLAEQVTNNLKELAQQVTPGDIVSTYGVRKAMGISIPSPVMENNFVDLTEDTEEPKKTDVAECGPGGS
The experiment in a line: Binding affinity to recombinant human BRD7 by differential scanning fluorimetry.

Experiment [6] addresses Chromatin remodeling regulator CECR2 (Homo sapiens) (UniProt Q9BXF3). The experiment in a line: Binding affinity to recombinant human CECR2 by differential scanning fluorimetry.

Chain of Chromatin remodeling regulator CECR2 (Homo sapiens) (Q9BXF3 whole entry, looked up): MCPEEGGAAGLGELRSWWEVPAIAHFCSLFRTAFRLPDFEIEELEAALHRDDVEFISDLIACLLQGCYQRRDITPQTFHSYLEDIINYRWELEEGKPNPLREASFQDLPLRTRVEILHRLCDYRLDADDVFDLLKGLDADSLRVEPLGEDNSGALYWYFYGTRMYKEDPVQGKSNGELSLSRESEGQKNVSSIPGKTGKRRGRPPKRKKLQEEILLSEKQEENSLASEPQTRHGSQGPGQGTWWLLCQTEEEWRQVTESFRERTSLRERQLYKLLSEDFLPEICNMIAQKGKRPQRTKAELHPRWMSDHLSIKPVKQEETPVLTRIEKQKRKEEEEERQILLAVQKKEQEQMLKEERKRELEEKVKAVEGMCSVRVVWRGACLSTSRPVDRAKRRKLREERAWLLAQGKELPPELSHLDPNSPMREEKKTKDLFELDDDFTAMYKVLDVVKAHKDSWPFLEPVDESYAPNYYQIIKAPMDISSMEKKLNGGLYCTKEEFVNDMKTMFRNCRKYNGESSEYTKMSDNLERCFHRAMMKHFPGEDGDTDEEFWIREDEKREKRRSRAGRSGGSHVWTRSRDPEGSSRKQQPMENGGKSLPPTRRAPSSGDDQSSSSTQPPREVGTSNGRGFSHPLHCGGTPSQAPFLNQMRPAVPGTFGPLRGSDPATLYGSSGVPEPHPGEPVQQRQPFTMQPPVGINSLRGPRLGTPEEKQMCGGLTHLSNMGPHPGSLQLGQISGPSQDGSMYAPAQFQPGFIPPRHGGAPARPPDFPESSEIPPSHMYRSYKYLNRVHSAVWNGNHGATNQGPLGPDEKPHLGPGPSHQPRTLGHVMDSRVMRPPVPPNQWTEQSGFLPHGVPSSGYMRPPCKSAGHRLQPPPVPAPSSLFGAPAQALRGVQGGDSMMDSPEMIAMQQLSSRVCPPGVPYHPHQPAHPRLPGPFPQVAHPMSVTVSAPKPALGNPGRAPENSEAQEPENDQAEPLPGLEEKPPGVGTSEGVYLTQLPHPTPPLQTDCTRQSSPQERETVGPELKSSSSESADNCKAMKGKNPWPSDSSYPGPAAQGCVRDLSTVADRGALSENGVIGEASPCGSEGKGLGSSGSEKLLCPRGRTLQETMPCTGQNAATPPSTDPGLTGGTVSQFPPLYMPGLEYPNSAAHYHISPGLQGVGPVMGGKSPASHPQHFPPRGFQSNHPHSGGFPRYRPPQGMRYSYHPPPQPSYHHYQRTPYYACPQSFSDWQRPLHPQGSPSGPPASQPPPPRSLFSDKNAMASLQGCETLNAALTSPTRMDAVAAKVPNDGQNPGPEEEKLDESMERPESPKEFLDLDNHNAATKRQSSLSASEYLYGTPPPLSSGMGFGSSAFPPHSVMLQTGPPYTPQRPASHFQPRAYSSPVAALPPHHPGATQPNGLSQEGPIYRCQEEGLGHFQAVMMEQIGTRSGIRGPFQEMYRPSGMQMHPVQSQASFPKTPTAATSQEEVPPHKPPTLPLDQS

Regarding `NC(=O)c1ccc2[nH]ccc2c1`, in experiment [1], the ΔTm was found to be 2 °C.
In the case of `Cc1cc(=O)n(C)c2cc(NS(C)(=O)=O)ccc12`, the inhibition result in experiment [2] is “Active”.
`Cn1c(=O)ccc2ccccc21`: in experiment [1], the ΔTm was determined as 2 °C.
The same measure, in the same setting: to `Cc1nn(CCO)c2c1C(=O)CCC2` belongs 0.9 °C; to `CN1Cc2ccccc2C1=O`, 1.5 °C.
Take `CC(=O)Nc1ccc2c(C)cc(=O)n(C)c2c1`: the inhibition entry in experiment [2] is “Active”. In addition, in experiment [1], the ΔTm was determined as 2.6 °C.
Take `CNC(=O)c1cc(OCC(=O)Nc2ccccc2)ccc1OC1CCOCC1`: in experiment [3], the Kd worked out at 6.8 µM. Also, the results for the thermal shift (ΔTm) in experiment [4], in experiment [5] and in experiment [6] were 3.3 °C, 6.5 °C and 7.1 °C, respectively.
Take `Cc1c(N)c(=O)n(-c2ccccc2)n1C`: the thermal shift (ΔTm) in experiment [1] was 0.6 °C.
Consider `NCc1ccc(-c2csnn2)cc1`, for which the ΔTm in experiment [1] amounted to 1 °C.
Take `COC(=O)c1ccc(N2CCOCC2)nc1`: the ΔTm in experiment [1] is 0.7 °C.
The same measure, in the same setting: the value for `NC1CCN(C(=O)C2CC2)CC1` was 1 °C; that for `NC(=O)c1cccc2c1OCCO2` was 0.8 °C; that for `Oc1ccccc1-c1ccno1` was 1.3 °C.
Same read-out and setting: the value for `COc1cccc2onc(N)c12` was 0.8 °C.
